According to the C3SDB collision cross section collection:

Conditions: [M+H]+; instrument: DT; single field, calibrated with Agilent tune mix (Agilent)

Row | Compound | collision cross section (N2) [Å²]
1 | CCCC/C=C\C/C=C\CCCCCCCC(=O)OC[C@H](COP(=O)(O)OCCN)OC(=O)CCCCCCC/C=C\CCCCCCCCC [PE(36:3)] | 274.9
2 | CCCCC/C=C\C/C=C\CCCCCCCC(=O)O[C@H](CO/C=C\CCCCCCCCCCCCCC)COP(=O)(O)OCCN [PE(p34:2)] | 270
3 | CCCCCCCCCCCCCCCCCC(=O)O[C@H](CO)COP(=O)([O-])OCC[N+](C)(C)C [LPC(18:0)] | 237.9

Further lines, results first:

Row | collision cross section (N2) [Å²] | Compound
4 | 289.3 | CC/C=C\C/C=C\C/C=C\C/C=C\C/C=C\C/C=C\CCC(=O)O[C@H](COC(=O)CCCCCCCCCCCCCCC)COP(=O)(O)OC[C@@H](O)CO [PG(38:6)]
5 | 292.1 | CC/C=C\C/C=C\C/C=C\C/C=C\CCCCC(=O)OC[C@H](COP(=O)(O)OC[C@@H](O)CO)OC(=O)CCCCCCCCC/C=C\CCCCCCCC [PG(38:5)]
6 | 280.2 | CC/C=C\C/C=C\C/C=C\C/C=C\C/C=C\CCCC(=O)O[C@H](CO/C=C\CCCCCCCCCCCCCCCC)COP(=O)(O)OCCN [PE(p38:5)]

Same assay, conditions: [M+NH4]+; instrument: DT; single field, calibrated with Agilent tune mix (Agilent)

Row | collision cross section (N2) [Å²] | Compound
7 | 292.9 | CCCCC/C=C\C/C=C\CCCCCCCCCCCC(=O)O[C@H](COC(=O)CCCCCCCCCCC)COP(=O)(O)O[C@H]1C(O)C(O)C(O)[C@@H](O)C1O (stereo not given in full) [PI(34:2)]
8 | 290.2 | CC/C=C\C/C=C\C/C=C\C/C=C\C/C=C\C/C=C\CCC(=O)O[C@H](COC(=O)CCCCCCCCCCCCCCC)COP(=O)(O)OC[C@@H](O)CO [PG(38:6)]
9 | 277.2 | CC/C=C\C/C=C\C/C=C\C/C=C\CCCCC(=O)OC[C@H](COP(=O)(O)O)OC(=O)CCCCCCCCC/C=C\CCCCCCCC [PA(38:5)]
10 | 298.9 | CCCCC/C=C\C/C=C\C/C=C\C/C=C\CCCCCC(=O)OC[C@H](COP(=O)(O)OC[C@@H](O)CO)OC(=O)CCCCCCC/C=C\CCCCCCCC [PG(40:5)]

Same assay, conditions: [M+Na]+; instrument: DT; single field, calibrated with Agilent tune mix (Agilent)

Row | Compound | collision cross section (N2) [Å²]
11 | CCCC/C=C\C/C=C\CCCCCCCC(=O)OC[C@H](COP(=O)(O)OCCN)OC(=O)CCCCCCC/C=C\CCCCCCCCC [PE(36:3)] | 279.9
12 | CCCCC/C=C\C/C=C\CCCCCCCCCCCC(=O)O[C@H](COC(=O)CCCCCCC/C=C\C/C=C\CCCCC)COP(=O)(O)O[C@H]1C(O)C(O)C(O)[C@@H](O)C1O (stereo not given in full) [PI(40:4)] | 307.1
13 | CCCCCCCCCCCCCCCCCC(=O)O[C@H](CO)COP(=O)([O-])OCC[N+](C)(C)C [LPC(18:0)] | 240.8

Other lines, results leading:

Row | collision cross section (N2) [Å²] | Compound
14 | 286 | CC/C=C\C/C=C\C/C=C\C/C=C\C/C=C\C/C=C\CCC(=O)O[C@H](COC(=O)CCCCCCCCCCCCCCC)COP(=O)(O)OC[C@@H](O)CO [PG(38:6)]
15 | 298.5 | CCCCC/C=C\C/C=C\C/C=C\CCCCC(=O)OC[C@H](COP(=O)([O-])OCC[N+](C)(C)C)OC(=O)CCCCCCCCC/C=C\CCCCCCCC [PC(38:4)]
16 | 288.8 | CC/C=C\C/C=C\C/C=C\C/C=C\CCCCC(=O)OC[C@H](COP(=O)(O)OC[C@@H](O)CO)OC(=O)CCCCCCCCC/C=C\CCCCCCCC [PG(38:5)]
17 | 295.2 | CCCCC/C=C\C/C=C\C/C=C\C/C=C\CCCCCC(=O)OC[C@H](COP(=O)(O)OC[C@@H](O)CO)OC(=O)CCCCCCC/C=C\CCCCCCCC [PG(40:5)]

Same assay, conditions: [M-H]-; instrument: DT; single field, calibrated with Agilent tune mix (Agilent)

Row | Compound | collision cross section (N2) [Å²]
18 | CCCCC/C=C\C/C=C\CCCCCCCCCCCC(=O)O[C@H](COC(=O)CCCCCCCCCCC)COP(=O)(O)O[C@H]1C(O)C(O)C(O)[C@@H](O)C1O (stereo not given in full) [PI(34:2)] | 282.4
19 | CCCC/C=C\C/C=C\CCCCCCCC(=O)OC[C@H](COP(=O)(O)OCCN)OC(=O)CCCCCCC/C=C\CCCCCCCCC [PE(36:3)] | 266.1
20 | CCCCC/C=C\C/C=C\CCCCCCCC(=O)O[C@H](CO/C=C\CCCCCCCCCCCCCC)COP(=O)(O)OCCN [PE(p34:2)] | 261.1
21 | CCCCC/C=C\C/C=C\CCCCCCCCCCCC(=O)O[C@H](COC(=O)CCCCCCC/C=C\C/C=C\CCCCC)COP(=O)(O)O[C@H]1C(O)C(O)C(O)[C@@H](O)C1O (stereo not given in full) [PI(40:4)] | 298.2
22 | CCCCC/C=C\C/C=C\C/C=C\CCCCCCC(=O)O[C@H](CO/C=C\CCCCCCCCCCCCCCCCCC)COP(=O)(O)OCCN [PE(p40:3)] | 277.1

Second part, the compound after the results:

Row | collision cross section (N2) [Å²] | Compound
23 | 283.4 | CCCCC/C=C\C/C=C\C/C=C\C/C=C\CCCCCC(=O)OC[C@H](COP(=O)(O)OC[C@@H](O)CO)OC(=O)CCCCCCC/C=C\CCCCCCCC [PG(40:5)]
24 | 270.6 | CC/C=C\C/C=C\C/C=C\C/C=C\C/C=C\CCCC(=O)O[C@H](CO/C=C\CCCCCCCCCCCCCCCC)COP(=O)(O)OCCN [PE(p38:5)]

Conditions: [M+CH3COO]-; instrument: TW; calibrated with phosphatidylcholines (ESI+) and phosphatidylethanolamines (ESI-)

Row | collision cross section (N2) [Å²] | Compound
25 | 296.3 | CCCCC/C=C\C/C=C\C/C=C\CCCCC(=O)OC[C@H](COP(=O)([O-])OCC[N+](C)(C)C)OC(=O)CCCCCCCCC/C=C\CCCCCCCC [PC(38:4)]

Same assay, conditions: [M+H]+; instrument: TW; calibrated with phosphatidylcholines (ESI+) and phosphatidylethanolamines (ESI-)

Row | Compound | collision cross section (N2) [Å²]
26 | CCCC/C=C\C/C=C\CCCCCCCC(=O)OC[C@H](COP(=O)(O)OCCN)OC(=O)CCCCCCC/C=C\CCCCCCCCC [PE(36:3)] | 273.7
27 | CCCCC/C=C\C/C=C\CCCCCCCC(=O)O[C@H](CO/C=C\CCCCCCCCCCCCCC)COP(=O)(O)OCCN [PE(p34:2)] | 271.8
28 | CCCCC/C=C\C/C=C\C/C=C\CCCCCCC(=O)O[C@H](CO/C=C\CCCCCCCCCCCCCCCCCC)COP(=O)(O)OCCN [PE(p40:3)] | 287.9
29 | CCCCCCCCCCCCCCCCCC(=O)O[C@H](CO)COP(=O)([O-])OCC[N+](C)(C)C [LPC(18:0)] | 235.7

Results, then the compound that gave them:

Row | collision cross section (N2) [Å²] | Compound
30 | 293.3 | CCCCC/C=C\C/C=C\C/C=C\C/C=C\CCCCCC(=O)O[C@H](COC(=O)CCCCCCC/C=C\C/C=C\CCCCC)COP(=O)([O-])OCC[N+](C)(C)C [PC(40:6)]
31 | 291.2 | CCCCC/C=C\C/C=C\C/C=C\CCCCC(=O)OC[C@H](COP(=O)([O-])OCC[N+](C)(C)C)OC(=O)CCCCCCCCC/C=C\CCCCCCCC [PC(38:4)]
32 | 278.3 | CC/C=C\C/C=C\C/C=C\C/C=C\C/C=C\CCCC(=O)O[C@H](CO/C=C\CCCCCCCCCCCCCCCC)COP(=O)(O)OCCN [PE(p38:5)]

Same assay, conditions: [M+Na]+; instrument: TW; calibrated with phosphatidylcholines (ESI+) and phosphatidylethanolamines (ESI-)

Row | collision cross section (N2) [Å²] | Compound
33 | 284 | CC/C=C\C/C=C\C/C=C\C/C=C\C/C=C\C/C=C\CCC(=O)O[C@H](COC(=O)CCCCCCCCCCCCCCC)COP(=O)(O)OC[C@@H](O)CO [PG(38:6)]
34 | 285.9 | CC/C=C\C/C=C\C/C=C\C/C=C\CCCCC(=O)OC[C@H](COP(=O)(O)OC[C@@H](O)CO)OC(=O)CCCCCCCCC/C=C\CCCCCCCC [PG(38:5)]
35 | 292.7 | CCCCC/C=C\C/C=C\C/C=C\C/C=C\CCCCCC(=O)OC[C@H](COP(=O)(O)OC[C@@H](O)CO)OC(=O)CCCCCCC/C=C\CCCCCCCC [PG(40:5)]
36 | 279.4 | CC/C=C\C/C=C\C/C=C\C/C=C\C/C=C\CCCC(=O)O[C@H](CO/C=C\CCCCCCCCCCCCCCCC)COP(=O)(O)OCCN [PE(p38:5)]

Same assay, conditions: [M-H]-; instrument: TW; calibrated with phosphatidylcholines (ESI+) and phosphatidylethanolamines (ESI-)

Row | Compound | collision cross section (N2) [Å²]
37 | CCCCC/C=C\C/C=C\CCCCCCCCCCCC(=O)O[C@H](COC(=O)CCCCCCCCCCC)COP(=O)(O)O[C@H]1C(O)C(O)C(O)[C@@H](O)C1O (stereo not given in full) [PI(34:2)] | 282.4
38 | CCCC/C=C\C/C=C\CCCCCCCC(=O)OC[C@H](COP(=O)(O)OCCN)OC(=O)CCCCCCC/C=C\CCCCCCCCC [PE(36:3)] | 266.7
39 | CCCCC/C=C\C/C=C\CCCCCCCCCCCC(=O)O[C@H](COC(=O)CCCCCCC/C=C\C/C=C\CCCCC)COP(=O)(O)O[C@H]1C(O)C(O)C(O)[C@@H](O)C1O (stereo not given in full) [PI(40:4)] | 297.1

Second part, the compound after the results:

Row | collision cross section (N2) [Å²] | Compound
40 | 275.6 | CC/C=C\C/C=C\C/C=C\C/C=C\C/C=C\C/C=C\CCC(=O)O[C@H](COC(=O)CCCCCCCCCCCCCCC)COP(=O)(O)OC[C@@H](O)CO [PG(38:6)]
41 | 261.6 | CC/C=C\C/C=C\C/C=C\C/C=C\CCCCC(=O)OC[C@H](COP(=O)(O)O)OC(=O)CCCCCCCCC/C=C\CCCCCCCC [PA(38:5)]
42 | 276.5 | CC/C=C\C/C=C\C/C=C\C/C=C\CCCCC(=O)OC[C@H](COP(=O)(O)OC[C@@H](O)CO)OC(=O)CCCCCCCCC/C=C\CCCCCCCC [PG(38:5)]
43 | 283 | CCCCC/C=C\C/C=C\C/C=C\C/C=C\CCCCCC(=O)OC[C@H](COP(=O)(O)OC[C@@H](O)CO)OC(=O)CCCCCCC/C=C\CCCCCCCC [PG(40:5)]
44 | 268.7 | CC/C=C\C/C=C\C/C=C\C/C=C\C/C=C\CCCC(=O)O[C@H](CO/C=C\CCCCCCCCCCCCCCCC)COP(=O)(O)OCCN [PE(p38:5)]

Conditions: [M+H]+; instrument: DT; stepped-field

Row | collision cross section (N2) [Å²] | Compound
45 | 240.7 | CCCCCCCCCCCCCCCCCC(=O)O[C@H](CO)COP(=O)([O-])OCC[N+](C)(C)C [LPC(18:0)]
